Experiments:
[1] = tested on: panel of six GA-specific long-term human T-cell lines (222-2D8, 222-2F12, 165-F3C, 165-F6C, 205-1C4, 205-1F4); assay: GA-specific human T-cell line panel assay (ATP proliferation): GA test lots and altered GA lots compared with Copaxone; format: cell-based; conditions: 4 days
Experimental: Proliferation assays, using the panel of six GA-specific long-term human T-cell lines listed in Table 78, were carried out to compare […] GA test lots, GMA/009/14 (GA Lot 009), GMA/010/14 (GA Lot 010), GMA/011/14 (GA Lot 011), GMA/012/14 (GA Lot 012), GMA/013/14 (GA Lot 013), GMA/014/14 (GA Lot 014), GA Lot 016, GMA/017/14 (GA Lot 017), GMA/018/14 (GA Lot 018), and GMA/070/14 (GA Lot 070), manufactured using standard methods, to a Copaxone reference lot.
Each T-cell line was restimulated using methods described above, using five concentrations of the reference antigen (0.5, 1, 2, 2.5, and 5 μg/ml Copaxone), the same five concentrations of test antigen (the nine GA test lots), and a no antigen control, in the presence of 5×10^4 mitomycin-treated autologous B-LCL. Proliferation was measured by ATP assay after 4 days of incubation with antigen, using methods described previously.
The percentages in the last column of each table were calculated as follows: Proliferation response to test antigen minus proliferation response to control (no antigen)÷proliferation response to reference antigen minus proliferation response to control (no antigen)
The panel of six GA-specific human T-cell lines listed in Table 78 above was used to test the immunological identity of altered GA lots to Copaxone.
Proliferation assays using the panel of six GA-specific T-cell lines (Table 77) were carried out, to compare negative GA lots 051F, 054F, 055F, 057F, 058F, 059F, and 060F (test lots), to Copaxone (reference lot). Each cell line was restimulated using 5 concentrations of reference antigen (Copaxone) and test antigen (the negative GA lots), including a no antigen control (in the presence of 5×10^4 mitomycin-treated autologous B-LCL). Proliferation was measured by ATP assay after 4 days of incubation with antigen, using methods described previously.
The percentages in the last column of each table were calculated as follows: Proliferation response to test antigen minus proliferation response to control (no antigen)÷proliferation response to reference antigen minus proliferation response to control (no antigen).

[2] = tested on: Donor 6 GMA-Reactive T-Cell Lines; assay: ATP proliferation assay, Donor 6 GMA-reactive T-cell lines; format: cell-based, human; conditions: Day 35, GMA Lot 001 and COP 10 μg/mL

Substance: glatiramer acetate [COP]
- Proliferation (ATP assay), Mean ([1]; Table 95, T-cell line 222-2D8, GA conc. 1 μg/mL): 87,807
- Proliferation (ATP assay), Mean ([1]; Table 95, T-cell line 222-2D8, GA conc. 2 μg/mL): 142,231
- Proliferation (ATP assay), Mean ([1]; Table 95, T-cell line 222-2D8, GA conc. 2.5 μg/mL): 140,804
- Proliferation (ATP assay), Mean ([1]; Table 95, T-cell line 222-2D8, GA conc. 5 μg/mL): 147,182
- Proliferation (ATP assay), Mean ([1]; Table 95, T-cell line 222-2F12, GA conc. 0.5 μg/mL): 3,580
- Proliferation (ATP assay), Mean ([1]; Table 95, T-cell line 222-2F12, GA conc. 1 μg/mL): 42,304
- Proliferation (ATP assay), Mean ([1]; Table 95, T-cell line 222-2F12, GA conc. 2 μg/mL): 108,046
- Proliferation (ATP assay), Mean ([1]; Table 95, T-cell line 222-2F12, GA conc. 2.5 μg/mL): 115,182
- Proliferation (ATP assay), Mean ([1]; Table 95, T-cell line 222-2F12, GA conc. 5 μg/mL): 123,169
- Proliferation (ATP assay), Mean ([1]; Table 96, T-cell line 165-F3C, GA conc. 0.5 μg/mL): 2,577
- Proliferation (ATP assay), Mean ([1]; Table 96, T-cell line 165-F3C, GA conc. 1 μg/mL): 5,743
- Proliferation (ATP assay), Mean ([1]; Table 96, T-cell line 165-F3C, GA conc. 2 μg/mL): 16,415
- Proliferation (ATP assay), Mean ([1]; Table 96, T-cell line 165-F3C, GA conc. 2.5 μg/mL): 20,446
- Proliferation (ATP assay), Mean ([1]; Table 96, T-cell line 165-F3C, GA conc. 5 μg/mL): 32,600
- Proliferation (ATP assay), Mean ([1]; Table 96, T-cell line 165-F6C, GA conc. 0.5 μg/mL): 2,228
- Proliferation (ATP assay), Mean ([1]; Table 96, T-cell line 165-F6C, GA conc. 1 μg/mL): 4,270
- Proliferation (ATP assay), Mean ([1]; Table 96, T-cell line 165-F6C, GA conc. 2 μg/mL): 15,430
- Proliferation (ATP assay), Mean ([1]; Table 96, T-cell line 165-F6C, GA conc. 2.5 μg/mL): 28,942
- Proliferation (ATP assay), Mean ([1]; Table 96, T-cell line 165-F6C, GA conc. 5 μg/mL): 45,836
- Proliferation (ATP assay), Mean ([1]; Table 96, T-cell line 205-1C4, GA conc. 0.5 μg/mL): 11,790
- Proliferation (ATP assay), Mean ([1]; Table 96, T-cell line 205-1C4, GA conc. 1 μg/mL): 26,004
- Proliferation (ATP assay), Mean ([1]; Table 96, T-cell line 205-1C4, GA conc. 2 μg/mL): 102,672
- Proliferation (ATP assay), Mean ([1]; Table 96, T-cell line 205-1C4, GA conc. 2.5 μg/mL): 124,300
- Proliferation (ATP assay), Mean ([1]; Table 96, T-cell line 205-1C4, GA conc. 5 μg/mL): 129,908
- Proliferation (ATP assay), Mean ([1]; Table 96, T-cell line 205-1F4, GA conc. 0.5 μg/mL): 8,158
- Proliferation (ATP assay), Mean ([1]; Table 96, T-cell line 205-1F4, GA conc. 1 μg/mL): 17,491
- Proliferation (ATP assay), Mean ([1]; Table 96, T-cell line 205-1F4, GA conc. 2 μg/mL): 51,613
- Proliferation (ATP assay), Mean ([1]; Table 96, T-cell line 205-1F4, GA conc. 2.5 μg/mL): 60,244
- Proliferation (ATP assay), Mean ([1]; Table 96, T-cell line 205-1F4, GA conc. 5 μg/mL): 54,345
- Proliferation (ATP assay), Mean ([1]; Table 96, T-cell line 222-2D8, GA conc. 0.5 μg/mL): 2,785
- Proliferation (ATP assay), Mean ([1]; Table 96, T-cell line 222-2D8, GA conc. 1 μg/mL): 28,970
- Proliferation (ATP assay), Mean ([1]; Table 96, T-cell line 222-2D8, GA conc. 2 μg/mL): 76,089
- Proliferation (ATP assay), Mean ([1]; Table 96, T-cell line 222-2D8, GA conc. 2.5 μg/mL): 90,666
- Proliferation (ATP assay), Mean ([1]; Table 96, T-cell line 222-2D8, GA conc. 5 μg/mL): 99,491
- Proliferation (ATP assay), Mean ([1]; Table 96, T-cell line 222-2F12, GA conc. 0.5 μg/mL): 2,404
- Proliferation (ATP assay), Mean ([1]; Table 96, T-cell line 222-2F12, GA conc. 1 μg/mL): 11,359
- Proliferation (ATP assay), Mean ([1]; Table 96, T-cell line 222-2F12, GA conc. 2 μg/mL): 78,880
- Proliferation (ATP assay), Mean ([1]; Table 96, T-cell line 222-2F12, GA conc. 2.5 μg/mL): 95,825
- Proliferation (ATP assay), Mean ([1]; Table 96, T-cell line 222-2F12, GA conc. 5 μg/mL): 107,930
- ATP proliferation assay ([2]; Cell line 224-B6-001): 78357 RLU
- ATP proliferation assay ([2]; Cell line 224-B7-001): 20586 RLU
- ATP proliferation assay ([2]; Cell line 224-B11-001): 27861 RLU
- ATP proliferation assay ([2]; Cell line 224-C4-001): 52771 RLU
- ATP proliferation assay ([2]; Cell line 224-C11-001): 87933 RLU
- ATP proliferation assay ([2]; Cell line 224-D2-001): 26027 RLU
- ATP proliferation assay ([2]; Cell line 224-D6-001): 68767 RLU
- ATP proliferation assay ([2]; Cell line 224-E2-001): 233094 RLU
- ATP proliferation assay ([2]; Cell line 224-E7-001): 137556 RLU
- ATP proliferation assay ([2]; Cell line 224-F4-001): 114667 RLU
- ATP proliferation assay ([2]; Cell line 224-G2-001): 227257 RLU
- ATP proliferation assay ([2]; Cell line 224-G10-001): 229933 RLU
- ATP proliferation assay ([2]; Cell line 224-G11-001): 91466 RLU
